From article PMC6270994, “The Hydractinia echinata Test-System. III: Structure-Toxicity Relationship Study of Some Azo-, Azo-Anilide, and Diazonium Salt Derivatives” (Molecules, 2014) come the findings set out here.

Like-named read-outs stand apart in the source and are kept apart here.

For this data set, the system named is Hydractinia echinata. The experiment in a line: Hydractinia echinata test system (HeTS): reduction of Cs+-induced metamorphosis of larvae. Format: in vivo. Particulars: for EC50: Hydractinia echinata. The protocol: The average (C) concentrations of these values were calculated too. The MRC50 value calculations (Chicu et al.) result from the graphical representation of the metamorphosis variation, M (%), (Y axis) function of the xenobiotic’s concentration (mol/L) (X axis), where the metamorphosis decreases with the rise of the xenobiotic’s concentration. Thus, the MRC50 value represents the xenobiotic’s concentration (mol/L) necessary for a 50% decrease of metamorphosis, with respect to control.
For each concentration of substance experiments were performed in triplicate and were repeated at least twice.
Colonies of H. echinata (Biologische Anstalt, Helgoland, Germany) were used to obtain eggs and larvae. The culture medium was artificial seawater (980 mosmol, pH 8.2, 18 °C). In laboratory an artificial metamorphosis can be synchronically started by the introduction of Cs^+ ions or by using seawater without Mg^2+ ions; it then lasts only 24 h. Under the action of external stimulus of Cs^+ ions or Cs^+ ions together with the tested compounds, one part of larvae further lives as such and another one is metamorphosized to the polyp form. The evaluation of the influence of the tested substance is very clear this way, the proposed method being based on this aspect.
H. echinata larvae were exposed to seawater containing Cs^+ and simultaneously one of the test substances for 3 h. The percentage of animals that underwent metamorphosis (development into polyps) was determined after 24 h. […] We chose a concentration of inducers which caused about […] to three quarters of the larvae to metamorphose in order to have conditions which are highly sensitive against an inhibitory influence. […] This concentration was termed MRC50 (for Metamorphosis Reduction Concentration) and is similar to the effective EC50 concentration that gives half maximal effective response.

The mark [1] stands for this setting: MRC50 in mol/L = concentration for 50% decrease of metamorphosis vs control, larvae exposed 3 h with Cs+, read after 24 h, read-out: M: experimental Mlog(1/MRC50) (converted).
Where [2] appears, read: MRC50 in mol/L = concentration for 50% decrease of metamorphosis vs control, larvae exposed 3 h with Cs+, read after 24 h.
The mark [3] stands for this setting: parent dye, Table 2, read-out: F(1+2+...)e experimental toxicity log(1/MRC50) (converted).
The mark [4] stands for this setting: product of enzymatic reduction/hydrolysis of the dye, read-out: F(1), F(2),... individual log(1/MRC50) toxicity value (converted).

For `Nc1ccc2cc(S(=O)(=O)O)c(N=Nc3ccc(NC(=O)c4ccc(N=Nc5c(S(=O)(=O)O)cc6cc(S(=O)(=O)O)cc(N)c6c5O)cc4)cc3)c(O)c2c1` [Compound 111, 5-Amino-3-{2-[4-({4-[2-(7-amino-1-hydroxy-3-sulfonaphthalen-2-yl)diazen-1-yl]phenyl}-carbamoyl)phenyl]diazen-1-yl}-4-hydroxy-naphthalene-2,7-disulfonic acid], under setting [1], the EC50 was 263 µM.

As for `Cl.Cl.Nc1ccc(N=Nc2cccc(N=Nc3ccc(N)cc3N)c2)c(N)c1` [Compound 60, Bismark Brown Y (Vesuvin)], the “M: experimental Mlog(1/MRC50)” value under setting [2] was 3.87.

`O=C(O)c1ccc(N=Nc2ccc(O)c(C(=O)O)c2)cc1` [Compound 9, 5-[2-(4-Carboxyphenyl)diazen-1-yl]-2-hydroxybenzoic acid]: the EC50 was 447 µM under setting [1] and 447 µM under setting [3]. As for `COc1cc(-c2ccc(N=Nc3ccc4c(S(=O)(=O)[O-])cc(S(=O)(=O)[O-])c(N)c4c3O)c(OC)c2)ccc1N=Nc1ccc2c(S(=O)(=O)[O-])cc(S(=O)(=O)[O-])c(N)c2c1O.[Na+].[Na+].[Na+].[Na+]` [Compound 92, Direct Blue 1], the “M: experimental Mlog(1/MRC50)” value under setting [2] is on record as 3.79. Turning to `COc1cc(-c2ccc(N=Nc3c(S(=O)(=O)[O-])cc4cc(S(=O)(=O)[O-])cc(N)c4c3O)c(OC)c2)ccc1N=Nc1c(S(=O)(=O)[O-])cc2cc(S(=O)(=O)[O-])cc(N)c2c1O.[Na+].[Na+].[Na+].[Na+]` [Compound 91, Direct Blue 15 (Aizen Direct Sky Blue 5B)], the “M: experimental Mlog(1/MRC50)” value under setting [2] is reported as 3.69.

For the compound `O=C(O)c1ccc(N=Nc2c(O)c(C(=O)O)cc3ccccc23)cc1` [Compound 25, 4-[2-(4-Carboxyphenyl)diazen-1-yl]-3-hydroxynaphthalene-2-carboxylic acid], the EC50 under setting [1] was 355 µM.

For the compound `Cc1ccccc1/N=N/c1ccc(/N=N/c2c(O)ccc3ccccc23)c(C)c1` [Compound 63, Sudan IV (Scarlet Red)], under setting [2], the “M: experimental Mlog(1/MRC50)” value was 3.05. Still for that read-out and setting: to `Nc1c(N=Nc2ccc([N+](=O)[O-])cc2)c(S(=O)(=O)[O-])cc2cc(S(=O)(=O)[O-])c(N=Nc3ccccc3)c(O)c12.[Na+].[Na+]` [Compound 74, Acid Black 1 (Amido Black 10B)] belongs 4.33. As to `O=C(O)c1ccc(N=Nc2c(O)ccc3ccccc23)cc1` [Compound 23, 4-[2-(2-Hydroxynaphthalen-1-yl)diazen-1-yl]benzoic acid], the EC50 under setting [1] was 245 µM. With `O=C(Nc1ccc2c(O)c(N=Nc3ccc(N=Nc4ccc(S(=O)(=O)[O-])cc4)cc3S(=O)(=O)[O-])c(S(=O)(=O)[O-])cc2c1)Nc1ccc2c(O)c(N=Nc3ccc(N=Nc4ccc(S(=O)(=O)[O-])cc4)cc3S(=O)(=O)[O-])c(S(=O)(=O)[O-])cc2c1.[Na+].[Na+].[Na+].[Na+].[Na+].[Na+]` [Compound 132, Direct Red 80 (Saturn Rot F3B)], under setting [2], the “M: experimental Mlog(1/MRC50)” value is 3.80. The same measure, in the same setting: to Bordo Direct AN [Compound 81] belongs 3.86.

With `O=S(=O)([O-])c1ccc(N=Nc2c(O)ccc3ccccc23)cc1.[Na+]` [Compound 28, Acid Orange 7], the “M: experimental Mlog(1/MRC50)” value under setting [2] came out at 3.17. In the case of `C=C(O)c1cc([N+](=O)[O-])ccc1N=Nc1c(N)ccc2c(O)c(N=Nc3ccc(NC(=O)c4ccc(N=Nc5ccc(O)c(C(=O)O)c5)cc4)cc3)c(S(=O)(=O)O)cc12` [Compound 115, 5-{2-[4-({4-[2-(6-Amino-1-hydroxy-5-{2-[2-(1-hydroxy-ethenyl)-4-nitro-phenyl]diazen-1-yl}-3-sulfonaphthalen-2-yl)diazen-1-yl]phenyl}-carbamoyl)phenyl]-diazen-1-yl}-2-hydroxybenzoic acid], the EC50 under setting [1] is 138 µM. Still for that read-out and setting: to `CCN(CC)c1ccc(N=Nc2ccc(C(=O)O)cc2)cc1` [Compound 6, 4-{2-[4-(Diethylamino)phenyl]diazen-1-yl}benzoic acid] belongs 17 µM.

`O=S(=O)([O-])c1cc(Nc2nc(Nc3ccccc3)nc(N(CCO)CCO)n2)ccc1/C=C/c1ccc(Nc2nc(Nc3ccccc3)nc(N(CCO)CCO)n2)cc1S(=O)(=O)[O-].[Na+].[Na+]` [Compound 103, Fluorescent Brightener 28]: the “M: experimental Mlog(1/MRC50)” value under setting [2] is on record as 3.81. With `O=C(Nc1ccc(/N=N/c2ccc(C(=O)O)c(O)c2)cc1)c1ccc(/N=N/c2ccccc2O)cc1` [Compound 104, 2-Hydroxy-4-[(E)-2-(4-{4-[(E)-2-(2-hydroxy-phenyl)diazen-1-yl]-benzamido}phenyl)-diazen-1-yl]benzoic acid], the EC50 by setting is: under setting [1], 30.2 µM; under setting [3], 30.2 µM. In the case of `O=S(=O)(O)c1cc(S(=O)(=O)O)c2c(/N=N/c3ccccc3)c(O)ccc2c1` [Compound 39, Acid Orange 10 (Orange G)], under setting [1], the EC50 was 457 µM. With `O=C([O-])C1=NN(c2ccc(S(=O)(=O)[O-])cc2)C(=O)C1N=Nc1ccc(S(=O)(=O)[O-])cc1.[Na+].[Na+].[Na+]` (centres unmarked) [Compound 55, Acid Yellow 23 (Tartrazine, Food Yellow 4)], the toxicity entry (even at a concentration of 0.11 mol/L) is “not toxic at all”. For the same compound, the “M: experimental toxicity (class word)” value (same column as M) was “NOTE”. `Nc1cc(S(=O)(=O)O)cc2cc(S(=O)(=O)O)c(N=Nc3ccc(NC(=O)c4ccc(N=Nc5ccc(O)c(C(=O)Nc6ccccc6)c5)cc4)cc3)c(O)c12` [Compound 122, 5-Amino-4-hydroxy-3-{2-[4-(4-{2-[4-hydroxy-3-(phenyl-carbamoyl)phenyl]-diazen-1-yl}-benzamido)phenyl]-diazen-1-yl}-naphthalene-2,7-disulfonic acid]: under setting [1], the EC50 was 31.6 µM.

As to `O=C(Nc1ccc(N=Nc2c(O)c(S(=O)(=O)O)cc3cc(S(=O)(=O)O)ccc23)cc1)c1ccc(N=Nc2c(O)c(S(=O)(=O)O)cc3cc(S(=O)(=O)O)ccc23)cc1` [Compound 110, 3-Hydroxy-4-[2-(4-{4-[2-(2-hydroxy-3,6-disulfonaphthalen-1-yl)diazen-1-yl]-benzamido}phenyl)-diazen-1-yl]-naphthalene-2,7-disulfonic acid], the EC50 under setting [1] was 195 µM. On to `Nc1ccc(O)cc1O` [2,4-DHA, 2,4-dihydroxyaniline], for which the EC50 under setting [4] was 0.55 µM. For the compound Direct Black 32 [Compound 77], the “M: experimental Mlog(1/MRC50)” value under setting [2] amounted to 3.89. As for `Nc1c(/N=N/c2ccc(-c3ccc(/N=N/c4cc(S(=O)(=O)O)c5ccccc5c4N)cc3)cc2)cc(S(=O)(=O)O)c2ccccc12` [Compound 82, Congo Red], the EC50 under setting [1] is 32.4 µM. With `Nc1ccc2cc(S(=O)(=O)O)c(N=Nc3ccc(NC(=O)c4ccc(N=Nc5ccc(O)c(C(=O)Nc6ccccc6)c5)cc4)cc3)c(O)c2c1` [Compound 121, 6-Amino-4-hydroxy-3-{2-[4-(4-{2-[4-hydroxy-3-(phenyl-carbamoyl)phenyl]diazen-1-yl}benzamido)-phenyl]diazen-1-yl}naphthalene-2-sulfonic acid], the EC50 under setting [1] was 31.6 µM.

As to `Nc1ccc(N=Nc2ccc(NC(=O)c3ccc(N=Nc4c(S(=O)(=O)O)cc5cc(S(=O)(=O)O)c(N=Nc6ccccc6)c(O)c5c4N)cc3)cc2)c(N)c1` [Compound 116, 4-Amino-3-{2-[4-({4-[2-(2,4-diamino-phenyl)diazen-1-yl]phenyl}carbamoyl)-phenyl]diazen-1-yl}-5-hydroxy-6-(2-phenyl-diazen-1-yl)-naphthalene-2,7-disulfonic acid], under setting [1], the EC50 was 166 µM. Turning to `Nc1ccc(C(=O)O)cc1` [APAB, p-aminobenzoic acid], the EC50 under setting [4] is 457 µM.
